Source: patent publication US20230135152A1 (ACURASTEM INCORPORATED, priority 2020, published 2023)

What was measured:
[1] = biological target: T1, PIKFYVE (Homo sapiens, UniProt Q9Y2I7); assay: PIKFYVE assay (luciferase ADP-Glo kinase assay, Promega); type: biochemical; conditions: Table 3
How it was run: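 ADP generated in the kinase reaction was detected by ADP-Glo luminescence (luciferase).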

[2] = biological target: T1, PIKFYVE; assay: Cell-based Pikfyve inhibition activity assay (EEA1 staining, mean vesicle size in BJ fibroblast cells); conditions: Table 4, 4 hours treatment, 3 μM Apilimod = 100% inhibition
How it was run: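 BJ fibroblasts treated 4 h at 37° C with eleven 3-fold doses (0.03-3000 nM), then fixed and stained for EEA1. Confocal images (20×, 16 tiles/well) analysed for mean vesicle size. Normalised to 0.5% DMSO (0%) and 3 μM apilimod (100%); dose-response fitted with variable slope.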

T1 sequence (Q9Y2I7 whole entry): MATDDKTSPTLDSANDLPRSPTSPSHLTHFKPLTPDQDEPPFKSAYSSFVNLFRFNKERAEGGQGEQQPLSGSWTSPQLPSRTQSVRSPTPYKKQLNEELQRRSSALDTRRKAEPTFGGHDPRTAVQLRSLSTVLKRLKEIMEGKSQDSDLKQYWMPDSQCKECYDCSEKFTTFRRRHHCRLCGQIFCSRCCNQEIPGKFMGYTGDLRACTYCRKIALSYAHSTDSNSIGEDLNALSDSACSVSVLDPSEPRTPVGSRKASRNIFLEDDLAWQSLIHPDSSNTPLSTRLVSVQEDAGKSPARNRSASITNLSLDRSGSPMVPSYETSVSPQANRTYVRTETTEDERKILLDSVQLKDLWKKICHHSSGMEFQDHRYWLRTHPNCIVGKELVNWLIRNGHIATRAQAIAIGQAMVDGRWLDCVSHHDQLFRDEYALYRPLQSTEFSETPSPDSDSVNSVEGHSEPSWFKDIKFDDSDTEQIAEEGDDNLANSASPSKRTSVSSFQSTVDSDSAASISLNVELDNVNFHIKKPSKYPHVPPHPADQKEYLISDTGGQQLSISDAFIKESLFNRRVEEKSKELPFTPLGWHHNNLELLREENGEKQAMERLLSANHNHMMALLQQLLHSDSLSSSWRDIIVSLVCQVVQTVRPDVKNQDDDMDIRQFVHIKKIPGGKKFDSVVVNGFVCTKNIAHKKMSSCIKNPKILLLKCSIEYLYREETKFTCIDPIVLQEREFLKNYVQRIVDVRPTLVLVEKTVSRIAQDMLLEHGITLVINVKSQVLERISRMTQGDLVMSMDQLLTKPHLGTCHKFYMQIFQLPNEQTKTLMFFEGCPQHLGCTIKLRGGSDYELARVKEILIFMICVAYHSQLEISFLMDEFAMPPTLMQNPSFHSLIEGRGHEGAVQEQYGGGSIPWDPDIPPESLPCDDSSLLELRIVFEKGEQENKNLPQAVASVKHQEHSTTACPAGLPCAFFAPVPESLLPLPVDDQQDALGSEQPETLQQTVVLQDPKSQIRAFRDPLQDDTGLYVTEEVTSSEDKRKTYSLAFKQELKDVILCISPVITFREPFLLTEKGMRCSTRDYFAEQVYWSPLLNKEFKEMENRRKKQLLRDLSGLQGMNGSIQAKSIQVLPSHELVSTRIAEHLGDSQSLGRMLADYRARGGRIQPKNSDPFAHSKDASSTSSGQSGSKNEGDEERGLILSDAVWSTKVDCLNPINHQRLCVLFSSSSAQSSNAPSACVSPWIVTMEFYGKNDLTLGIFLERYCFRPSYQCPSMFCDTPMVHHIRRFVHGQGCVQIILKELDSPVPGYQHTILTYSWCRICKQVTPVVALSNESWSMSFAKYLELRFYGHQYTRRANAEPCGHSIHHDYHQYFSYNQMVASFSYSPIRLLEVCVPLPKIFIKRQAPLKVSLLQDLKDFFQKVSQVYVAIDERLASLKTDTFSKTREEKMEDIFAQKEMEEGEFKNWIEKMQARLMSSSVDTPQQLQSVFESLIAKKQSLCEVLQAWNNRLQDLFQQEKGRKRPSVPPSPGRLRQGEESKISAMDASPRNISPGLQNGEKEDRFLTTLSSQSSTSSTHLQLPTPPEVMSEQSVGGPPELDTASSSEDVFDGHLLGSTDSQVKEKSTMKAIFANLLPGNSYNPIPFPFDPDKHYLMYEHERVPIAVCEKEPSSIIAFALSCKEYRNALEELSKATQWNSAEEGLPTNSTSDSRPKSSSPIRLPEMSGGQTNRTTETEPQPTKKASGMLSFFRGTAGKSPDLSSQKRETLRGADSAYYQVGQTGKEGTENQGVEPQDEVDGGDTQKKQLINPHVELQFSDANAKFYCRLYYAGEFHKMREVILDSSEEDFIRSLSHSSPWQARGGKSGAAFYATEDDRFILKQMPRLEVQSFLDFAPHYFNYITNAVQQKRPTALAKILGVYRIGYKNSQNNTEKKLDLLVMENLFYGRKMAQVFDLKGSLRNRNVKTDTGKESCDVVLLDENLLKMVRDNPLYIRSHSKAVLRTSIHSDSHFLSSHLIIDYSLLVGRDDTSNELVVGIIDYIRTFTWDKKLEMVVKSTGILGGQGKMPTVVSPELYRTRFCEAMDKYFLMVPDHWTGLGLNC

IC50 [1] | EC50 [2] | Compound
< 3 nM | 100 to 500 nM | Cc1cccc(-c2ccn(-c3cc(N4CCOCC4)nc(NC(=O)Cc4cnn(C)c4)n3)n2)c1 [Compound 186, 2-(1-methyl-1H-pyrazol-4-yl)-N-(4-morpholino-6-(3-(m-tolyl)-1H-pyrazol-1-yl)pyrimidin-2-yl)acetamide]
< 3 nM | 20 to 100 nM | Cc1cccc(-c2ccn(-c3cc(N4CCOCC4)nc(NC(=O)CCc4cnn(C)c4)n3)n2)c1 [Compound 187]
< 3 nM | 100 to 500 nM | Cc1cccc(-c2ccn(-c3cc(N4CCOCC4)nc(NC(=O)CC4CC4)n3)n2)c1 [Compound 188, 2-cyclopropyl-N-(4-morpholino-6-(3-(m-tolyl)-1H-pyrazol-1-yl)pyrimidin-2-yl)acetamide]
< 3 nM | 20 to 100 nM | Cn1cc(CCOc2nc(N3CCOCC3)cc(-n3ccc(-c4ccccc4)n3)n2)cn1 [Compound 189, 4-(2-(2-(1-methyl-1H-pyrazol-4-yl)ethoxy)-6-(3-phenyl-1H-pyrazol-1-yl)pyrimidin-4-yl)morpholine]
3 to 10 nM | 100 to 500 nM | Cc1cccc(-c2ccn(-c3cc(N4CCOCC4)nc(OCCc4cnn(C)c4)n3)n2)n1 [Compound 190, 4-(2-(2-(1-methyl-1H-pyrazol-4-yl)ethoxy)-6-(3-(6-methylpyridin-2-yl)-1H-pyrazol-1-yl)pyrimidin-4-yl)morpholine]
10 to 100 nM | > 5000 nM | Cn1cc(CCOc2nc(N3CCOCC3)cc(-n3ccc(-c4ccncc4)n3)n2)cn1 [Compound 191, 4-(2-(2-(1-methyl-1H-pyrazol-4-yl)ethoxy)-6-(3-(pyridin-4-yl)-1H-pyrazol-1-yl)pyrimidin-4-yl)morpholine]
< 3 nM | 100 to 500 nM | CN(C)Cc1cccc(-c2ccn(-c3cc(N4CCOCC4)nc(OCCc4cnn(C)c4)n3)n2)c1 [Compound 193, N,N-dimethyl-1-(3-(1-(2-(2-(1-methyl-1H-pyrazol-4-yl)ethoxy)-6-morpholinopyrimidin-4-yl)-1H-pyrazol-3-yl)phenyl)methanamine]
3 to 10 nM | 100 to 500 nM | Cn1cc(CCOc2nc(N3CCOCC3)cc(-n3ccc(-c4ccccn4)n3)n2)cn1 [Compound 194, 4-(2-(2-(1-methyl-1H-pyrazol-4-yl)ethoxy)-6-(3-(pyridin-2-yl)-1H-pyrazol-1-yl)pyrimidin-4-yl)morpholine]
< 3 nM | 20 to 100 nM | Cn1cc(CCOc2nc(N3CCOCC3)cc(-n3ccc(-c4cccc(F)c4)n3)n2)cn1 [Compound 195, 4-(6-(3-(3-fluorophenyl)-1H-pyrazol-1-yl)-2-(2-(1-methyl-1H-pyrazol-4-yl)ethoxy)pyrimidin-4-yl)morpholine]
3 to 10 nM | 100 to 500 nM | Cc1ccc(C)c(-c2ccn(-c3cc(N4CCOCC4)nc(OCCc4cnn(C)c4)n3)n2)c1 [Compound 197, 4-(6-(3-(2,5-dimethylphenyl)-1H-pyrazol-1-yl)-2-(2-(1-methyl-1H-pyrazol-4-yl)ethoxy)pyrimidin-4-yl)morpholine]
< 3 nM | < 20 nM | COCc1cccc(-c2ccn(-c3cc(N4CCOCC4)nc(OCCc4cnn(C)c4)n3)n2)c1 [Compound 200, 4-(6-(3-(3-(methoxymethyl)phenyl)-1H-pyrazol-1-yl)-2-(2-(1-methyl-1H-pyrazol-4-yl)ethoxy)pyrimidin-4-yl)morpholine]
10 to 100 nM | 500 to 5000 nM | Cn1nccc1CC(O)c1nc(N2CCOCC2)cc(-n2ccc(-c3ccccc3)n2)n1 (centres unmarked) [Compound 201, 2-(1-methyl-1H-pyrazol-5-yl)-1-(4-morpholino-6-(3-phenyl-1H-pyrazol-1-yl)pyrimidin-2-yl)ethan-1-ol]
100 to 5000 nM | 500 to 5000 nM | Cc1cc(-c2ccccc2)nn1-c1cc(N2CCOCC2)nc(N)n1 [Compound 202, 4-(5-methyl-3-phenyl-1H-pyrazol-1-yl)-6-morpholinopyrimidin-2-amine]
